Results on one compound are retold here after patent EP0906100B1, “USE OF 5-HT 1A? RECEPTOR ANTAGONISTS FOR THE TREATMENT OF URINARY INCONTINENCE” (RECORDATI S.A., priority 1996, dated 1997).

For this test, the system named is post-synaptic 5-HT1A receptor. As to the kind of experiment: Inhibition of forepaw treading induced by 8-OH-DPAT in rats. The following applies: i.p., forepaw treading induced by 1 mg/kg s.c. 8-OH-DPAT. In kind it is in vivo. The procedure: Inhibition of forepaw treading induced by 8-OH-DPAT in rats:
Male Sprague-Dawley rats (150-175 g) obtained from Charles River (Italy), were housed in a climate-controlled room and maintained on a 12 h light/dark cycle with free access to food and water. On the day of experiment, rats were placed singly in clear plastic boxes. Reserpinised rats were treated with reserpine, 1 mg/kg s.c., 18-24 h before the test.
The appearance of the forepaw treading symptom induced by post-synaptic stimulation of the 5HT1A receptors was noted, and its intensity was scored using a ranked intensity scale in which: 0 = absent, 1 = equivocal, 2 = present and 3 = intense. Behavioural scores for each treated rat were accumulated over the time course (5 observation periods) and expressed as mean values of 8-10 rats.

`COc1ccccc1N1CCN(CCCCN2C(=O)c3ccccc3C2=O)CC1` [NAN-190, 1-(2-methoxyphenyl)-4-[4-(2-phthalimido)-butyl]-piperazine]: the “NORMAL RATS ID50” value (normal rats) is on record as 700 (500-1000) µg/Kg. Moreover, under “reserpinized rats”, the “RESERPINIZED RATS ID50” value is recorded as 2000 (1600-2400) µg/Kg.
